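Growth conditions: 96-well plates. Treatment: test compound, 48 hours, 5 concentrations. Analysis: linear interpolation between bracketing concentrations; unreached endpoints set to highest concentration. GI50 = concentration required for 50% inhibition of growth.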 Active and inactive are the calls of the source. Cut-off read from the data, not from the text of the source: active = GI50 up to about 1.1 µM and inactive = higher.
Columns and labels:
Assay in all cases: growth of human tumour cells (NCI), 48 h
[1] = test system: A498
[2] = test system: COLO 205
[3] = test system: EKVX
[4] = test system: HL-60
[5] = test system: HOP-92
[6] = test system: K562
[7] = test system: M14
[8] = test system: MDA-N
[9] = test system: Malme-3M
[10] = test system: NCI-H522
[11] = test system: NCI/ADR-RES
[12] = test system: OVCAR-4
[13] = test system: OVCAR-8
[14] = test system: PC-3
[15] = test system: SK-OV-3
[16] = test system: SNB-75
[17] = test system: SR
[18] = test system: UACC-257
[19] = test system: UO-31

SMILES | GI50 [1] | GI50 [2] | GI50 [3] | GI50 [4] | GI50 [5] | GI50 [6] | GI50 [7] | GI50 [8] | GI50 [9] | GI50 [10] | GI50 [11] | GI50 [12] | GI50 [13] | GI50 [14] | GI50 [15] | GI50 [16] | GI50 [17] | GI50 [18] | GI50 [19]
c1ccc(C(OCCN2CC3CCC(C2)N3)c2ccccc2)cc1 | 74 µM (inactive) | 19 µM (inactive) | > 100 µM (inactive) | 74.1 µM (inactive) | 18.3 µM (inactive) | 43.8 µM (inactive) | 17.1 µM (inactive) | 26.4 µM (inactive) | 16 µM (inactive) | 35.2 µM (inactive) | > 100 µM (inactive) | > 100 µM (inactive) | > 100 µM (inactive) | > 100 µM (inactive) | > 100 µM (inactive) | 50.1 µM (inactive) | 31.6 µM (inactive) | 22.7 µM (inactive) | 64 µM (inactive)
Cn1c(=O)c2nc(CCCc3ccc([N+](=O)[O-])cc3)[nH]c2n(C)c1=O | > 100 µM (inactive) | > 100 µM (inactive) | > 100 µM (inactive) |  | > 100 µM (inactive) | 31.2 µM (inactive) | > 100 µM (inactive) | > 100 µM (inactive) | > 100 µM (inactive) | > 100 µM (inactive) | > 100 µM (inactive) | > 100 µM (inactive) | > 100 µM (inactive) | > 100 µM (inactive) | > 100 µM (inactive) | > 100 µM (inactive) | > 100 µM (inactive) | > 100 µM (inactive) | > 100 µM (inactive)
COC(=O)c1nc2n(n1)-c1ccccc1C(=O)N(Cc1ccccc1)C2 | > 100 µM (inactive) | > 100 µM (inactive) | > 100 µM (inactive) | > 100 µM (inactive) | > 100 µM (inactive) | > 100 µM (inactive) | > 100 µM (inactive) | > 100 µM (inactive) | > 100 µM (inactive) | > 100 µM (inactive) | > 100 µM (inactive) | > 100 µM (inactive) | > 100 µM (inactive) | > 100 µM (inactive) | > 100 µM (inactive) |  | > 100 µM (inactive) | > 100 µM (inactive) | > 100 µM (inactive)
CCCCCCCCCCCCCC[C@@H](O)[C@H]1CC[C@H]([C@H]2CC[C@H]([C@H](O)CCCCCC[C@@H](O)CC3=C[C@H](C)OC3=O)O2)O1 | > 12.5 µM (inactive) | > 25 µM (inactive) | > 7.52 µM (inactive) | 2.22 µM (inactive) | 3.34 µM (inactive) |  | > 25 µM (inactive) | 2.03 µM (inactive) | > 25 µM (inactive) | 8.93 µM (inactive) | > 20.1 µM (inactive) | > 25 µM (inactive) | 1.75 µM (inactive) | > 25 µM (inactive) | > 25 µM (inactive) | > 25 µM (inactive) | 1.03 µM (active) | 3.65 µM (inactive) | > 25 µM (inactive)
NC(=O)SCCC(N)C(=O)O (stereo not given) | > 100 µM (inactive) | > 100 µM (inactive) | > 100 µM (inactive) | > 81.3 µM (inactive) | > 100 µM (inactive) | > 100 µM (inactive) | > 100 µM (inactive) | > 100 µM (inactive) | > 100 µM (inactive) | > 100 µM (inactive) | > 100 µM (inactive) | > 100 µM (inactive) | > 100 µM (inactive) | > 100 µM (inactive) | > 100 µM (inactive) | > 100 µM (inactive) | > 100 µM (inactive) | > 100 µM (inactive) | > 100 µM (inactive)
CN(/N=C/c1ccccn1)C1=NCCCCN1 | > 100 µM (inactive) | > 100 µM (inactive) | > 100 µM (inactive) | > 100 µM (inactive) | > 100 µM (inactive) | > 100 µM (inactive) | > 100 µM (inactive) | > 100 µM (inactive) | > 100 µM (inactive) | > 100 µM (inactive) | > 100 µM (inactive) | > 100 µM (inactive) | > 100 µM (inactive) | > 100 µM (inactive) | > 100 µM (inactive) | > 100 µM (inactive) | > 100 µM (inactive) | > 100 µM (inactive) | > 100 µM (inactive)
CC[C@H]1C=CCC[C@@]2(C[C@@H]3CC[C@H]4[C@@H](C(=O)OCCCCCCCCCCCCCCCC(=O)N(CCCNC(C)=O)C[C@H](CCNC(C)=O)OC(C)=O)[C@@]5(CCC[C@@H](C)O5)NC(=[N+]34)N2)O1 | 1.83 µM (inactive) | 1.28 µM (inactive) | 0.861 µM (active) | 1.14 µM (inactive) | 1.11 µM (active) | 0.708 µM (active) | 1.73 µM (inactive) | 1.69 µM (inactive) | 1.54 µM (inactive) | 1.24 µM (inactive) | > 10 µM (inactive) | 1.4 µM (inactive) | 1.4 µM (inactive) | 1.07 µM (active) | 1.74 µM (inactive) |  | 1.56 µM (inactive) | 1.24 µM (inactive) | 1.78 µM (inactive)
COc1cccc2c1C(=O)c1c(O)c3c(c(O)c1C2=O)CC(O)(C(=O)CO)CC3OC1CC(N2CCOCC2C#N)C(O)C(C)O1 (stereo not given) | > 0.01 µM (active) | < 0.0001 µM (active) | < 0.0001 µM (active) | < 0.0001 µM (active) | < 0.0001 µM (active) | < 0.0001 µM (active) | < 0.0001 µM (active) | < 0.0001 µM (active) | < 0.0001 µM (active) | < 0.0001 µM (active) | < 0.0001 µM (active) | > 0.01 µM (active) | < 0.0001 µM (active) | < 0.0001 µM (active) | > 0.01 µM (active) | > 0.01 µM (active) | < 0.0001 µM (active) | < 0.0001 µM (active) | > 0.01 µM (active)
COc1cccc(/N=N/C(=N/NC(=O)c2cc(Cl)ccc2O)c2ccc(N(CCC#N)CCC#N)cc2C)c1 | 26.4 µM (inactive) | 6.21 µM (inactive) | 20.3 µM (inactive) |  |  | 21.3 µM (inactive) | 42.3 µM (inactive) | 41.1 µM (inactive) | 17.5 µM (inactive) | 9.1 µM (inactive) | 49 µM (inactive) | 19.8 µM (inactive) | 16.9 µM (inactive) | 23.2 µM (inactive) | 52 µM (inactive) | 21.4 µM (inactive) | 21.2 µM (inactive) | 10.1 µM (inactive) | 38.8 µM (inactive)
CN(C)c1ccc(/C=N/Nc2nc3ccccc3c(=O)n2-c2ccccc2)cc1 | 63.2 µM (inactive) | > 100 µM (inactive) |  | > 100 µM (inactive) | 31 µM (inactive) | > 100 µM (inactive) | 78 µM (inactive) | 74.3 µM (inactive) | 43.1 µM (inactive) | 44.5 µM (inactive) | 63.1 µM (inactive) | 15.9 µM (inactive) | 46.9 µM (inactive) | 55.1 µM (inactive) | 72.3 µM (inactive) | 5.75 µM (inactive) | > 100 µM (inactive) | > 100 µM (inactive) | > 100 µM (inactive)
O=C1c2cc(Cl)ccc2N=C(NC2CCCC2)C2CSCN12 (stereo not given) | 68.9 µM (inactive) | > 100 µM (inactive) | 46.6 µM (inactive) |  |  | 59.2 µM (inactive) | 91.2 µM (inactive) | > 100 µM (inactive) | > 100 µM (inactive) | 63.8 µM (inactive) | > 100 µM (inactive) | > 100 µM (inactive) | > 100 µM (inactive) | 55.8 µM (inactive) | > 100 µM (inactive) | 52.7 µM (inactive) | 41.5 µM (inactive) | 71.6 µM (inactive) | 46.3 µM (inactive)
CSc1ncnc2c1ncn2C1CC(Oc2ccc(C)cc2)C(COc2ccc(C)cc2)O1 (stereo not given) | > 100 µM (inactive) | > 100 µM (inactive) | > 100 µM (inactive) | > 100 µM (inactive) | > 100 µM (inactive) |  | > 100 µM (inactive) | > 100 µM (inactive) | > 100 µM (inactive) | > 100 µM (inactive) | > 100 µM (inactive) | > 100 µM (inactive) | > 100 µM (inactive) | > 100 µM (inactive) | > 100 µM (inactive) | > 100 µM (inactive) | 76.6 µM (inactive) | > 100 µM (inactive) | 
N#Cc1c(O)nc2[nH]nc(/N=N\c3c(O)ccc4ccccc34)c2c1-c1ccc(Cl)cc1 | 0.117 µM (active) | 0.433 µM (active) | 0.219 µM (active) | 0.0713 µM (active) | 0.234 µM (active) | 1.63 µM (inactive) | 0.188 µM (active) | 0.637 µM (active) | 0.143 µM (active) | 0.248 µM (active) | 0.0975 µM (active) | 0.241 µM (active) | 0.233 µM (active) | 0.303 µM (active) | 0.187 µM (active) |  | 0.255 µM (active) | 0.851 µM (active) | 0.175 µM (active)
COCC12CCC(OC)C34C5CC6(O)C(OC)C=C(C5C6OC(=O)c5ccccc5)C(C(OC)C13)C4N(C)C2 (stereo not given) | > 100 µM (inactive) | > 100 µM (inactive) | > 100 µM (inactive) | > 100 µM (inactive) | > 100 µM (inactive) |  | > 100 µM (inactive) | > 100 µM (inactive) | > 100 µM (inactive) | > 100 µM (inactive) | > 100 µM (inactive) | > 100 µM (inactive) | > 100 µM (inactive) | > 100 µM (inactive) | > 100 µM (inactive) | 32.1 µM (inactive) | > 100 µM (inactive) | > 100 µM (inactive) | > 100 µM (inactive)
COc1cc(-c2nc(N)c(C#N)c3c2CCS(=O)(=O)c2ccc(C)cc2-3)cc(OC)c1OC | 29.4 µM (inactive) | > 100 µM (inactive) |  | > 100 µM (inactive) | 9.16 µM (inactive) | > 100 µM (inactive) | > 100 µM (inactive) | > 100 µM (inactive) | 17.5 µM (inactive) | > 100 µM (inactive) | 12.6 µM (inactive) | > 100 µM (inactive) | 4.98 µM (inactive) | > 100 µM (inactive) |  | 16.7 µM (inactive) | > 100 µM (inactive) | > 100 µM (inactive) | > 100 µM (inactive)

Reference: ChEMBL document CHEMBL1201862, “PubChem BioAssay data set” (2004)
